Experimental data: patent publication US11453697B1, “Cyclic di-nucleotide compounds as sting agonists” (Merck Sharp & Dohme Corp., priority 2015, dated 2022)
Read-outs that look alike come from different tables or passages of the source.

What was measured:
[1] = tested on: IFN-β secretion in THP1 cells; assay: IFN-β secretion in THP1 cell culture (5 h); assay type: cell-based, human
How it was run: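 THP1 cells incubated with compound for 5 h at 37 °C, 5% CO2, and secreted IFN-β in supernatant quantified by AlphaLISA. Percent effect normalised to 30 uM cGAMP positive control and 0.3% DMSO. EC50 from 4-parameter fit.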

full-length WT STING = full-length WT STING (Homo sapiens (Human), UniProt Q86WV6, H232R); assay: 3H-cGAMP filtration binding assay (WT STING)
full-length WT STING, sequence (Q86WV6 other isoform, or with tags, fused parts or gaps H232R (already in the parent)): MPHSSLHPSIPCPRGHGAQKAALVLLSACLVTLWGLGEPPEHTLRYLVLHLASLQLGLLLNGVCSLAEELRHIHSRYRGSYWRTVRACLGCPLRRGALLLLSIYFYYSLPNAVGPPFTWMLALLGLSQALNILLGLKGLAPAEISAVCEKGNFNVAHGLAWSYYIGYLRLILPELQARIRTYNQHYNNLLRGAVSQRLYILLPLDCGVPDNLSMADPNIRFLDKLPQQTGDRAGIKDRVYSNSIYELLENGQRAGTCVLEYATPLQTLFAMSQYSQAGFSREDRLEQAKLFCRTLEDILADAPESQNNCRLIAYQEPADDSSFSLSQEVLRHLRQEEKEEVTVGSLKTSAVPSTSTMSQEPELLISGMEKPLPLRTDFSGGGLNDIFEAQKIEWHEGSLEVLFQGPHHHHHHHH
Experimental: The ability of compounds to bind STING is quantified by their ability to compete with tritiated cGAMP ligand for human STING receptor membrane using a radioactive filter-binding assay.
The basic WT STING filtration assay protocol is as follows:
Tritium levels for each reaction well were then measured using a PerkinElmer TopCount plate reader.
After normalization to controls, the percent activity for each compound concentration was calculated by measuring the amount of remaining radioactivity. The plot of percent activity versus the log of compound concentration was fit with a 4-parameter dose response equation to calculate EC50 values.

full-length HAQ STING = full-length HAQ STING (Homo sapiens (Human), UniProt Q86WV6, G230A/H232R/R293Q/R71H); assay: 3H-cGAMP filtration binding assay (HAQ STING); settings: competition with tritiated cGAMP, HAQ STING membrane; read-out: EC50 (nM), 3H-cGAMP filtration binding assay for HAQ STING
full-length HAQ STING, sequence (Q86WV6 other isoform, or with tags, fused parts or gaps, stated change not applied): as the sequence (Q86WV6 other isoform, or with tags, fused parts or gaps H232R (already in the parent)) above, with R71H, G230A, R293Q counted along it
How it was run: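 Competition binding of compounds against 8 nM [3H]cGAMP working stock on Hi-Five cell membranes overexpressing full-length HAQ STING; compound and membrane preincubated 60 min at RT before ligand addition. Bound radioactivity read by filtration and scintillation counting; percent activity normalized to controls, EC50 from 4-parameter fit.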

[2] = IFN-β secretion in THP1 cell culture, 5 h, compound at 30 μM, percent activation relative to 2′3′-cGAMP
[3] = competition with tritiated cGAMP, WT STING membrane; read-out: EC50 (nM), 3H-cGAMP filtration binding assay for WT STING
[4] = read-out: % Inh @ 20 uM, 3H-cGAMP filtration binding assay for WT STING

SMILES: Nc1nc2c(ncn2[C@@H]2O[C@@H]3COP(=O)(S)O[C@H]4C[C@H](n5cc(F)c6c(N)ncnc65)O[C@@H]4COP(=O)(O)O[C@@H]2[C@@H]3F)c(=O)[nH]1 (stereo partly drawn) [Example 256, 2-amino-9-[(5R,7R,8S,12aR,14R,15aS,16R)-14-(4-amino-5-fluoro-7H-pyrrolo[2,3-d]pyrimidin-7-yl)-16-fluoro-10-hydroxy-2,10-dioxido-2-sulfanyloctahydro-12H-5,8-methanofuro[3,2-1][1,3,6,9,11,2,10]pentaoxadiphosphacyclo-tetradecin-7-yl]-1,9-dihydro-6H-purin-6-one]
- % Effect at 30 μM relative to 2′3′-cGAMP [1, 2]: 149%
- EC50 (full-length WT STING; [3]): 93.5 nM

SMILES: Nc1nc2c(ncn2[C@@H]2O[C@@H]3COP(O)(=S)O[C@H]4[C@H](F)[C@H](n5cnc6c(N)ncnc65)O[C@@H]4COP(O)(=S)O[C@@H]2C3(F)F)c(=O)[nH]1 (single isomer, unassigned) [Example 155]
- % Effect at 30 μM relative to 2′3′-cGAMP [1]: 139%
- EC50 (full-length WT STING; EC50 (nM), 3H-cGAMP filtration binding assay for WT STING, competition with tritiated cGAMP, WT STING membrane): < 1 nM

SMILES: Nc1nc2c(ncn2[C@@H]2O[C@@H]3COP(=O)(S)O[C@H]4C[C@H](n5cc(F)c6c(N)ncnc65)O[C@@H]4COP(=O)(O)O[C@@H]2[C@@H]3F)c(=O)[nH]1 (stereo partly drawn) [Example 255, 2-amino-9-[(5R,7R,8S,12aR,14R,15aS,16R)-14-(4-amino-5-fluoro-7H-pyrrolo[2,3-d]pyrimidin-7-yl)-16-fluoro-10-hydroxy-2,10-dioxido-2-sulfanyloctahydro-12H-5,8-methanofuro[3,2-1][1,3,6,9,11,2,10]pentaoxadiphosphacyclo-tetradecin-7-yl]-1,9-dihydro-6H-purin-6-one]
- % Effect at 30 μM relative to 2′3′-cGAMP [1, 2]: 49%
- EC50 (full-length WT STING; [3]): 302 nM

SMILES: Nc1nc2c(nnn2[C@@H]2O[C@@H]3COP(O)(=S)O[C@@H]4[C@@H](COP(O)(=S)O[C@@H]2[C@H]3F)O[C@@H](n2ccc3c(N)ncnc32)C4(F)F)c(=O)[nH]1 (stereo partly drawn) [Example 220, 5-amino-3-[(5R,7R,8S,12aR,14R,15aR,16S)-14-(4-amino-7H-pyrrolo[2,3-d]pyrimidin-7-yl)-15,15,16-trifluoro-2,10-dihydroxy-2,10-disulfidooctahydro-12H-5,8-methanofuro[3,2-l][1,3,6,9,11,2,10]pentaoxadiphosphacyclotetra-decin-7-yl]-3,6-dihydro-7H-[1,2,3]triazolo[4,5-d]pyrimidin-7-one]
- % Effect at 30 μM relative to 2′3′-cGAMP [1]: 6%
- inhibition at 20 µM (full-length WT STING; [4]): 29%

SMILES: Nc1cc2c(ncn2[C@@H]2O[C@@H]3COP(=O)(S)O[C@H]4[C@H](F)[C@H](n5ccc6c(N)ncnc65)O[C@@H]4COP(=O)(S)O[C@@H]2[C@@H]3F)c(=O)[nH]1 (single isomer, unassigned) [Example 229]
- inhibition at 20 µM (full-length WT STING; [4]): 31%

SMILES: Nc1nc2c(ncn2[C@@H]2O[C@@H]3COP(O)(=S)O[C@H]4[C@@H](O)[C@H](n5cnc6c(N)ncnc65)O[C@@H]4COP(=O)(O)O[C@@H]2[C@@H]3O)c(=O)[nH]1 (stereo partly drawn) [Example 38, 2-amino-9-[(5R,7R,8R,12aR,14R,15R,15aS,16R)-14-(6-amino-9H-purin-9-yl)-2,10,15,16-tetrahydroxy-10-oxido-2-sulfidooctahydro-12H-5,8-methanofuro[3,2-l][1,3,6,9,11,2,10]pentaoxadiphosphacyclotetradecin-7-yl]-1,9-dihydro-6H-purin-6-one]
- % Effect at 30 μM relative to 2′3′-cGAMP [1]: 123%
- EC50 (full-length WT STING; [3]): 24.9 nM
- EC50 (full-length HAQ STING): 3 nM

SMILES: Nc1nc2c(ncn2[C@@H]2O[C@@H]3COP(=O)(S)O[C@H]4C[C@H](c5cnc6c(=O)[nH]cnn56)O[C@@H]4COP(=O)(S)O[C@@H]2[C@@H]3F)c(=O)[nH]1 (stereo partly drawn) [Example 336, 7-[(5R,7R,8S,12aR,14R,15aS,16R)-7-(2-amino-6-oxo-1,6-dihydro-9H-purin-9-yl)-16-fluoro-2,10-dioxido-2,10-disulfanyloctahydro-12H-5,8-methanofuro[3,2-l][1,3,6,9,11,2,10]pentaoxadiphosphacyclotetradecin-14-yl]imidazo[2,1-f][1,2,4]triazin-4(3H)-one]
- % Effect at 30 μM relative to 2′3′-cGAMP [1, 2]: 85%
- EC50 (full-length WT STING; [3]): 422 nM

SMILES: Nc1nc2c(ncn2[C@@H]2O[C@@H]3COP(O)(=S)O[C@H]4[C@H](F)[C@H](n5cnc6c(N)ncnc65)O[C@@H]4COP(O)(=S)O[C@@H]2C3(F)F)c(=O)[nH]1 (single isomer, unassigned) [Example 156]
- % Effect at 30 μM relative to 2′3′-cGAMP [1]: 119%
- EC50 (full-length WT STING; read-out: EC50 (nM), 3H-cGAMP filtration binding assay for WT STING; competition with tritiated cGAMP, WT STING membrane): < 1 nM

SMILES: Nc1nc2c(ncn2[C@@H]2O[C@@H]3COP(=O)(S)O[C@H]4[C@@H](O)[C@H](n5ccc6c(N)ncnc65)O[C@@H]4COP(=O)(O)O[C@@H]2[C@@H]3O)c(=O)[nH]1 (stereo partly drawn) [Example 43, 2-amino-9-[(5R,7R,8R,12aR,14R,15R,15aS,16R)-14-(4-amino-7H-pyrrolo[2,3-d]pyrimidin-7-yl)-10,15,16-trihydroxy-2,10-dioxido-2-sulfanyloctahydro-12H-5,8-methanofuro[3,2-l][1,3,6,9,11,2,10]pentaoxadiphosphacyclotetradecin-7-yl]-1,9-dihydro-6H-purin-6-one]
- % Effect at 30 μM relative to 2′3′-cGAMP [1]: 130%
- EC50 (full-length WT STING; [3]): 1020 nM
- EC50 (full-length HAQ STING): 162 nM
